Results from patent US20240182525A1, “NOVEL BICYCLIC COMPOUND, OPTICAL ISOMER THEREOF OR PHARMACEUTICALLY ACCEPTABLE SALT THEREOF, USE THEREOF, AND PREPARATION METHOD THEREFOR” (KOREARESEARCH INSTITUTE OF BIOSCIENCE AND BIOTECHNOLOGY, priority 2021, published 2024).

What was measured:
[1] = Cytotoxicity assay, U87MG; type: cell-based; conditions: human, U87MG cells (brain cancer), maximum concentration 100 μM
Procedure: (§1) To measure the cytotoxicity of the compound represented by Chemical Formula 1 (Chemical Formula 1-1), toxicity was measured in mouse preadipocyte 3T3-L1 cell line, human malignant melanoma A375 cell line, mouse malignant melanoma B16F10 cell line, human oral cancer MDA-MB-435 cell line, mouse breast cancer 4T1 cell line, human breast cancer MCF7 cell line, human brain cancer U87MG cell line, human glioblastoma U373MG cell line, human cervical cancer HeLa cell line, mouse embryonic fibroblast (MEF) cell line, human embryonic kidney HEK293T cell line (Korea Cell Line Bank). First, 1×10^4 cells were divided into 200 μl each in a 96-well plate using Dulbecco's Modified Eagle's Medium (DMEM) supplemented with 10% fetal bovine serum (FBS), […] streptomycin, and 50 U/ml penicillin, while maintaining various cells at 37r in an atmosphere of 5% CO2. The cells were treated with the compound of Chemical Formula 1-1 of the present invention at a maximum concentration of 100 μM and cultured for 48 hours under the same culture conditions. After the incubation, the culture media were removed and the cytotoxicity test results were confirmed (Table 2 and FIG. 3 below).

mouse 3T3-L1 cell line = assay: Adipogenesis inhibitory effect test, Oil Red O staining; type: cell-based
Procedure: The adipogenesis inhibitory activity of Chemical Formula 1 according to the present invention was measured through Oil Red O staining in mouse 3T3-L1 cell line. First, 3T3-L1 cells were placed in a 48-well plate (1×10^4 cell/well) and cultured for 24 hours in a 37° C. CO2 incubator. The next day, the cells were replaced with the normal culture media (Undifferentiated media; UND) and the differentiation induction medium (Differentiation media; DM), respectively, followed by treatment with 2.5-10 μM of Chemical Formula 1-1 for 48 hours. Then, the cells were replaced with the normal culture media (Maintainment media; MM), and cultured with 2.5-10 μM of Chemical Formula 1-1 for 72 hours, and then treated with Oil Red O.
In addition, the same experiment was conducted with the compound of Chemical Formula 1-1 at a fixed concentration of 7.5 μM and Wnt3a-conditional media at 10-2.5%.

[2] = tested on: β, a Wnt3a signaling protein; assay: Western blotting of Wnt3a signaling protein in 3T3-L1; type: cell-based, mouse; conditions: 7.5 μM, 3T3-L1, western blotting, FIGS. 6 and 7
Procedure: To confirm the Wnt3a signaling of Chemical Formula 1-1, the protein level of β, a Wnt3a signaling protein, was measured in the 3T3-L1 cell line. The 3T3-L1 cells were cultured in a 6-well plate (2×10^5 cell/well), and the next day, the cells were replaced with normal culture media (Undifferentiated media; UND) and differentiation induction media (Differentiation media; DM), respectively, followed by treatment with the compound of Chemical Formula 1-1 at 7.5 μM for 48 hours, and then the cells were replaced with new normal culture media (Maintaining media; MM). Here, the compound of Chemical Formula 1-1 at a concentration of 7.5 μM was cultured for 72 hours, followed by western blotting. In FIGS. 6 and 7, it was confirmed that the protein level of β increased in the treatment of the compound of Chemical Formula 1-1 alone and the treatment of Chemical Formula 1-1 and Wnt3a together.

Cytotoxicity assay, 4T1 = type: cell-based; conditions: mouse, 4T1 cells (breast cancer); 4T1, 48 hours, maximum concentration 100 μM
Procedure: as §1

3T3-L1 cells = assay: Cytotoxicity in 3T3-L1 cells in L-conditional or Wnt3a-containing culture media; type: cell-based, mouse; conditions: 2.5 to 10 μM, Wnt3a-containing culture media (2.5%), FIG. 3
Procedure: Next, in order to confirm the cytotoxicity in the Chemical Formula 1-1 and wnt3 culture, toxicity in 3T3-L1 cells was measured on the compound of Chemical Formula 1-1 of the present invention at a concentration of 2.5 to 10 μM in L-conditional media or Wnt3a-containing culture media (2.5%).

[3] = tested on: Wnt activity (HEK293T-TopFLASH cells); assay: TopFLASH luciferase assay, HEK293T-TopFLASH stable cell line (Wnt3a activity assay); type: cell-based, human; conditions: 1-50 μM, 24 hours
Procedure: In order to measure the level of Wnt activity of the compound of Chemical Formula 1-1, TopFLASH luciferase assay was performed on the HEK293T cell line. The TopFLASH luciferase assay was performed by creating a HEK293T-TopFLASH stable cell line with a viral vector made by combining Luciferase (reporter gene) with the TCF7 promoter. HEK293T-TopFLASH cells were cultured in a 96-well plate (1×10^4 cells/well), and the next day, the cells were treated with 1-50 μM of the compound of Chemical Formula 1-1 and confirmed by One-Glo™ (modified luciferin, Pormega, USA) after 24 hours.

[4] = Cytotoxicity assay, U373MG; type: cell-based; conditions: human, U373MG cells (glioblastoma), maximum concentration 100 μM
Procedure: as §1

[5] = tested on: adipogenesis-associated genes (3T3-L1 cells); assay: Q-PCR of adipogenesis-associated genes; type: cell-based, mouse; conditions: FIG. 11
Text: In addition, real-time polymerase chain reaction (Q-PCR) was used to confirm the expression of adipogenesis-associated genes. As a result, it was confirmed that the amount of adipogenesis induction-associated mRNA was reduced when treated with the compound of Chemical Formula 1 according to the present invention (FIG. 11).

Cytotoxicity assay, A375 = type: cell-based; conditions: human, A375 cells (malignant melanoma); A375, 48 hours, maximum concentration 100 μM
Procedure: as §1

C57BL/C6 mice = assay: Anti-obesity effect in high calorie diet mouse model; type: in vivo; conditions: high calorie diet + 15 mg/kg, FIG. 12
Procedure: C57BL/C6 mice were used to test the anti-obesity effect in a mouse model with respect to the compound of Chemical Formula 1 of the present invention, which is an adipogenesis-inhibiting compound. For effective evaluation of the anti-obesity model, the control group (general diet), the control group (high calorie diet), and an anti-obesity control group (high calorie diet+Chemical Formula 1 (15 mg/kg)) were compared and evaluated (FIG. 12). The mice injected with the high-calorie diet rather than the general diet gained 131% in body weight, but the mice treated with the high-calorie diet and Chemical Formula 1 (15 mg/kg) together […] 115% in body weight.

In the case of `CC(C)CC1NC(=O)C2CCCN2C(=O)C(C(O)C(C)C)NC(=O)CNC(=O)C(C(C)O)NC(=O)C2NC(=O)C(NC(=O)/C=C/c3ccccc3C(O)C(C)O)C(C)OC(=O)C(CC(N)=O)NC(=O)C(NC(=O)C(O)NC1=O)C(O)c1ccc(O)c(c1)Oc1ccc2cc1` (stereo not drawn) [Chemical Formula 1-1], the IC50 at 48 h [1] is reported as > 100 µM, the adipogenesis inhibitory activity (mouse 3T3-L1 cell line; 2.5-10 μM, Oil Red O, FIG. 8) is reported as “exhibited the adipogenesis inhibitory activity in a concentration-dependent manner” and the adipogenesis inhibitory activity (mouse 3T3-L1 cell line; fixed 7.5 μM with Wnt3a-conditional media at 10-2.5%, FIG. 9) is reported as “excellent”. The “protein level of β” value ([2]; compound alone) was “increased”, the “protein level of β” value ([2]; together with Wnt3a) was “increased” and the IC50 at 48 h (Cytotoxicity assay, 4T1) was > 100 µM. For the same molecule, the cytotoxicity (3T3-L1 cells) was “cytotoxicity was not observed”, the “Wnt activity (luciferase values)” value ([3]; compound alone, FIG. 4) was “greatly increased” and the “Wnt activity (luciferase values)” value ([3]; simultaneous treatment with Wnt3a-conditional media (2.5%), FIG. 5) was “greatly increased”. For the same molecule, the IC50 at 48 h [4] was 89.5 µM, the “amount of adipogenesis induction-associated mRNA” value [5] was “reduced” and the IC50 at 48 h (Cytotoxicity assay, A375) was > 100 µM. The abdominal fat weight (C57BL/C6 mice) was “significant decrease”, the liver weight (C57BL/C6 mice) was “significant decrease” and the body weight (C57BL/C6 mice; high-calorie diet alone 131%) was 115%.
